pIC50: −log10 of the molar value.
Columns and labels:
[1] = target: cGMP-inhibited 3',5'-cyclic phosphodiesterase 3A (Homo sapiens, UniProt Q14432); assay: (§1) PDE3A Enzyme Inhibition: The commercially available 3H-cAMP Scintillation Proximity Assay (SPA, Perkin Elmer) system was used for enzyme inhibition studies. For the determination of the in vitro effect of example compounds on the PDE3A reactions 2 μl of the respective example compound solution in DMSO (serial dilutions) were placed in wells of microtiter plates (Isoplate-96/200W; Perkin Elmer). 50 μl of a dilution of PDE3A cell extract from Sf9 cells overexpressing human full length PDE3A (SB Drug Discovery, UK) in buffer A (50 mM Tris/HCl pH 7.5, 8.3 mM MgCl2, 1.7 mM EDTA, 0.2% BSA) was added. The dilution of the PDE3A cell extract was chosen such that the reaction kinetics was linear and less than 70% of the substrate was consumed (typical dilution 1:5000). The reaction was started by addition of 50 μl (0.025 μCi) of 1:2000 in buffer A w/o BSA diluted substrate [8-3H]adenosine 3′, 5′-cyclic phosphate (1 μCi/μl; Perkin Elmer). After incubation at room temperature for 60 min, the reaction was stopped by addition of 25 μl of a suspension containing 18 mg/ml yttrium scintillation proximity beads (Perkin Elmer) in water. The microtiter plates were sealed and measured in a Microbeta scintillation counter (PerkinElmer Wallac). IC50 values were determined from sigmoidal curves by plotting percentage PDE3A activity vs log compound concentration.
[2] = target: cGMP-inhibited 3',5'-cyclic phosphodiesterase 3B (Homo sapiens, UniProt Q13370); assay: as §1, with “PDE3B” for “PDE3A”, “1:6000).” for “1:5000).”
cGMP-inhibited 3',5'-cyclic phosphodiesterase 3B, sequence (Q13370 whole entry): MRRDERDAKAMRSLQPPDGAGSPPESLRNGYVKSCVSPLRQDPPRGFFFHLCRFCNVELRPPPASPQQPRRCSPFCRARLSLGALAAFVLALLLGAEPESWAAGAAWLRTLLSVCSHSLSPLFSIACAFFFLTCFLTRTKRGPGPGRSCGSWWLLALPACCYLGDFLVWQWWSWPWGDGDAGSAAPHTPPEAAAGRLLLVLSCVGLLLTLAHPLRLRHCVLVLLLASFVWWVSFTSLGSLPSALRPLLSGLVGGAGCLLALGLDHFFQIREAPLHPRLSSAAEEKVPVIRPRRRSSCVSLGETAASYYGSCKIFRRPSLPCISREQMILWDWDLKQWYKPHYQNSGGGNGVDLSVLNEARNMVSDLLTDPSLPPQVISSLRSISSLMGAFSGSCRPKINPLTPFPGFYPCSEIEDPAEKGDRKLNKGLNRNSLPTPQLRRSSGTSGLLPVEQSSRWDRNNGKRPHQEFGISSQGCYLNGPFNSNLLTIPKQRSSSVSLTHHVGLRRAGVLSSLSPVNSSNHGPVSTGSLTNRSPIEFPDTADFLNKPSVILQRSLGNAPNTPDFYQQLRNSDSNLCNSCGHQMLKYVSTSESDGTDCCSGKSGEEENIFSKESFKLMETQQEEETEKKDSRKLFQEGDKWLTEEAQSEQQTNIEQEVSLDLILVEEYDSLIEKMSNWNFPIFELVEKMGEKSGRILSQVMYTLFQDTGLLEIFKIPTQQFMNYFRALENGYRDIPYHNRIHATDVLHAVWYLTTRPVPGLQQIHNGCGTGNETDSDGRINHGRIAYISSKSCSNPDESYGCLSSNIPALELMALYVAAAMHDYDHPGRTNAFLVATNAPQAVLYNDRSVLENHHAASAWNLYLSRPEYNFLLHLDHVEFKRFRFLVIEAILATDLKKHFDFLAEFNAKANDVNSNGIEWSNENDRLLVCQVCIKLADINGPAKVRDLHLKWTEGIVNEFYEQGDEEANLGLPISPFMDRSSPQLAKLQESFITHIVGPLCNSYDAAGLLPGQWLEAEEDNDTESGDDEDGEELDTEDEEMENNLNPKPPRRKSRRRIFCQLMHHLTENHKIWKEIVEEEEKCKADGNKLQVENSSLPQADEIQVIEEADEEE

cGMP-inhibited 3',5'-cyclic phosphodiesterase 3A, sequence (Q14432 whole entry): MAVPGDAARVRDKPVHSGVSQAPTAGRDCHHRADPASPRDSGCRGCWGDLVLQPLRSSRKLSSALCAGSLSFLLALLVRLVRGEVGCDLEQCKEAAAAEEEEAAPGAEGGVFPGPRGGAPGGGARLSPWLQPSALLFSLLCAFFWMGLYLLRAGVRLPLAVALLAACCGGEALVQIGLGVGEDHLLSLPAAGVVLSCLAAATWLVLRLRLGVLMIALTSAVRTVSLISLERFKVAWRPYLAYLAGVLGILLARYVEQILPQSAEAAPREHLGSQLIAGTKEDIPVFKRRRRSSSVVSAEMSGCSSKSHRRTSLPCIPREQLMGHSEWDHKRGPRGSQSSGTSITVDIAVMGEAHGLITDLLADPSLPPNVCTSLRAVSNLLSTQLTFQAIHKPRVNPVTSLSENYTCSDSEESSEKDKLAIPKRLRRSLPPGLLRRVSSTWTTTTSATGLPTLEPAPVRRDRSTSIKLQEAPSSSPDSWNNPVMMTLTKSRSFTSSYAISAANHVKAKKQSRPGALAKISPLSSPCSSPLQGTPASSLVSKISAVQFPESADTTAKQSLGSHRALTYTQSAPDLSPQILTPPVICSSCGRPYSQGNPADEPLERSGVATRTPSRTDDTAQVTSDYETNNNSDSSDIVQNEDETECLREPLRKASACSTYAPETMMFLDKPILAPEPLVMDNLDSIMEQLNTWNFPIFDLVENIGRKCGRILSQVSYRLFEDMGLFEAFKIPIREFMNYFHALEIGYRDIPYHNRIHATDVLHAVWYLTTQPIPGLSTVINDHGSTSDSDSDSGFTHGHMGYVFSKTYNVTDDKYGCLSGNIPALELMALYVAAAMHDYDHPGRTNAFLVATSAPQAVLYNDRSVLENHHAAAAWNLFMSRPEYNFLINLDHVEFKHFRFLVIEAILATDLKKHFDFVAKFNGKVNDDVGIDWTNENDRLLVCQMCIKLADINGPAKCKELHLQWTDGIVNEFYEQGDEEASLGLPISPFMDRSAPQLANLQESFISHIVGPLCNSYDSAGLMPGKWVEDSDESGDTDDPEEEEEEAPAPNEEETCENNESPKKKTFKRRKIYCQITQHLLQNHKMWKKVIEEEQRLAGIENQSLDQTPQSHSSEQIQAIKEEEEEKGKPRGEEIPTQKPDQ

pIC50 [1]	pIC50 [2]	SMILES
7.70	7.64	C[C@@H]1OC(=O)NN=C1c1ccc(N2CC(F)(F)C2)c(C(F)(F)F)c1
7.96	8.05	C[C@@H]1OC(=O)NN=C1c1ccc(N2CC(C)(O)C2)c(C(F)(F)F)c1
6.96	7.36	Cc1cc(C2=NNC(=O)OC2)ccc1-c1cccnc1
6.18	6.42	C[C@@H]1OC(=O)NN=C1c1ccc(-n2ccc(C(F)(F)F)n2)c(C(F)(F)F)c1

Source: ChEMBL document CHEMBL5729281, “Dihydrooxadiazinones” (2022)
